Values joined by “and” are separate entries in the source; they are usually repeats but may differ in a detail not shown here. Identical values can stand only once. Inconclusive results and toxic doses are left out. How the source made its calls: active means survival T/C of 150% or more; inactive means T/C below 125% in these data.
Tested on: CD2F1 mice, L1210 leukemia ip, survival T/C
Test: NCI In Vivo Anticancer Drug Screen. Data for tumor model L1210 Leukemia (intraperitoneal) in CD2F1 (CDF1) mice
Conditions: higher = longer survival
Summary of the method: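 Ratio T/C, where T is the treated-group value and C the vehicle-dosed control value, from mice implanted with a transplantable tumor.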

[1] = endpoint: mean survival time, dose: 100.0 mg/kg/injection, schedule: Q01DX009 (ip), vehicle: saline with Tween-80
[2] = endpoint: mean survival time, dose: 200.0 mg/kg/injection, schedule: Q01DX009 (ip), vehicle: saline with Tween-80
[3] = endpoint: mean survival time, dose: 400.0 mg/kg/injection, schedule: Q01DX009 (ip), vehicle: saline with Tween-80
[4] = endpoint: mean survival time, dose: 50.0 mg/kg/injection, schedule: Q01DX009 (ip), vehicle: Klucel (hydroxypropylcellulose) (HPC)
[5] = endpoint: mean survival time, dose: 100.0 mg/kg/injection, schedule: Q01DX009 (ip), vehicle: Klucel (hydroxypropylcellulose) (HPC)
[6] = endpoint: mean survival time, dose: 200.0 mg/kg/injection, schedule: Q01DX009 (ip), vehicle: Klucel (hydroxypropylcellulose) (HPC)
[7] = endpoint: mean survival time, dose: 100.0 mg/kg/injection, schedule: Q04DX003 (ip), vehicle: saline with Tween-80
[8] = endpoint: mean survival time, dose: 200.0 mg/kg/injection, schedule: Q04DX003 (ip), vehicle: saline with Tween-80
[9] = endpoint: mean survival time, dose: 400.0 mg/kg/injection, schedule: Q04DX003 (ip), vehicle: saline with Tween-80

Measured: T/C

CSc1ncnc2c1cnn2C1OC(CO)C(O)C1O (configuration not stated)
inactive: endpoint: mean survival time, dose: 12.5 mg/kg/injection, schedule: Q01DX005 (ip), vehicle: other 93 % of control | endpoint: mean survival time, dose: 25.0 mg/kg/injection, schedule: Q01DX005 (ip), vehicle: other 100 % of control | endpoint: mean survival time, dose: 50.0 mg/kg/injection, schedule: Q01DX005 (ip), vehicle: other 105 % of control | endpoint: mean survival time, dose: 100.0 mg/kg/injection, schedule: Q01DX005 (ip), vehicle: other 122 % of control and 100 % of control | endpoint: mean survival time, dose: 200.0 mg/kg/injection, schedule: Q01DX005 (ip), vehicle: other 119 % of control and 112 % of control

CCCCCCCCCCCCCC(=O)OC1C(CO)OC2C1Oc1nc(=N)ccn12 (configuration not stated)
active: endpoint: mean survival time, dose: 25.0 mg/kg/injection, schedule: Q01DX009 (ip), vehicle: other 153 % of control | endpoint: mean survival time, dose: 50.0 mg/kg/injection, schedule: Q01DX009 (ip), vehicle: other 212 % of control | endpoint: mean survival time, dose: 100.0 mg/kg/injection, schedule: Q01DX009 (ip), vehicle: other 278 % of control

CCC(N)(CO)CO
inactive: endpoint: mean survival time, dose: 100.0 mg/kg/injection, schedule: Q01DX009 (ip), vehicle: saline 100 % of control | endpoint: mean survival time, dose: 200.0 mg/kg/injection, schedule: Q01DX009 (ip), vehicle: saline 94 % of control | endpoint: mean survival time, dose: 400.0 mg/kg/injection, schedule: Q01DX009 (ip), vehicle: saline 94 % of control

COC(=O)C(Cl)C(Cl)c1ccccc1 (configuration not stated)
inactive: [1] 100 % of control | [2] 105 % of control | [3] 101 % of control

COC(=O)NC1C(C)OC(OC2C/C=C(/C)C3C=CC4C(OC5CC(OC6CC(O)C(OC7CC(O)C(OC)C(C)O7)C(C)O6)C(O)C(C)O5)C(C)CC(C)C4C3(C)/C(O)=C3\C(=O)OC4(CC(C)C(CO)=CC4/C=C\2C)C3=O)CC1(C)[N+](=O)[O-] (configuration not stated)
inactive: endpoint: median survival time, dose: 12.5 mg/kg/injection, schedule: Q01DX009 (ip), vehicle: Klucel (hydroxypropylcellulose) (HPC) 102 % of control | endpoint: median survival time, dose: 25.0 mg/kg/injection, schedule: Q01DX009 (ip), vehicle: Klucel (hydroxypropylcellulose) (HPC) 109 % of control | endpoint: median survival time, dose: 50.0 mg/kg/injection, schedule: Q01DX009 (ip), vehicle: Klucel (hydroxypropylcellulose) (HPC) 102 % of control | endpoint: median survival time, dose: 100.0 mg/kg/injection, schedule: Q01DX009 (ip), vehicle: Klucel (hydroxypropylcellulose) (HPC) 103 % of control

O=C1c2ccccc2C(=O)N1Cl
inactive: [4] 96 % of control | endpoint: mean survival time, dose: 50.0 mg/kg/injection, schedule: Q04DX003 (ip), vehicle: other 100 % of control | [5] 89 % of control | endpoint: mean survival time, dose: 100.0 mg/kg/injection, schedule: Q04DX003 (ip), vehicle: other 104 % of control | [6] 93 % of control | endpoint: mean survival time, dose: 200.0 mg/kg/injection, schedule: Q04DX003 (ip), vehicle: other 110 % of control

CNS(=O)(=O)Cc1ccccc1
inactive: [7] 91 % of control | [8] 97 % of control | [9] 94 % of control

NC(=O)/C=C/C1=NCCC1
inactive: endpoint: mean survival time, dose: 7.5 mg/kg/injection, schedule: Q04DX003 (ip), vehicle: saline with Tween-80 97 % of control | endpoint: mean survival time, dose: 15.0 mg/kg/injection, schedule: Q04DX003 (ip), vehicle: saline with Tween-80 97 % of control | endpoint: mean survival time, dose: 30.0 mg/kg/injection, schedule: Q04DX003 (ip), vehicle: saline with Tween-80 102 % of control | [1] 100 % of control | [2] 103 % of control | [3] 103 % of control

COc1ccc(NC(=O)Oc2cc(=O)oc3ccccc23)c(Cl)c1
inactive: [4] 107 % of control | [5] 96 % of control | [6] 100 % of control

CC[C@@H](C)[C@H]([C@H](CC(=O)N1CCC[C@@H]1[C@@H](OC)[C@H](C)C(=O)N[C@H](Cc1ccccc1)c1nccs1)OC)N(C)C(=O)[C@H](NC(=O)[C@@H](C(C)C)N(C)C)C(C)C
inactive: endpoint: median survival time, dose: 1.63 micrograms/kg/injection, schedule: Q01DX005 (ip), vehicle: saline + alcohol 119 % of control | endpoint: median survival time, dose: 26.0 micrograms/kg/injection, schedule: Q01DX005 (ip), vehicle: saline + alcohol 86 % of control
active: endpoint: median survival time, dose: 6.5 micrograms/kg/injection, schedule: Q01DX005 (ip), vehicle: saline + alcohol 160 % of control

O=S(O)OS(=O)O
inactive: endpoint: mean survival time, dose: 37.5 mg/kg/injection, schedule: Q01DX009 (ip), vehicle: saline 89 % of control | endpoint: mean survival time, dose: 75.0 mg/kg/injection, schedule: Q01DX009 (ip), vehicle: saline 91 % of control | endpoint: mean survival time, dose: 100.0 mg/kg/injection, schedule: Q04DX003 (ip), vehicle: saline 101 % of control | endpoint: mean survival time, dose: 150.0 mg/kg/injection, schedule: Q01DX009 (ip), vehicle: saline 93 % of control | endpoint: mean survival time, dose: 200.0 mg/kg/injection, schedule: Q04DX003 (ip), vehicle: saline 101 % of control | endpoint: mean survival time, dose: 300.0 mg/kg/injection, schedule: Q01DX009 (ip), vehicle: saline 91 % of control | endpoint: mean survival time, dose: 400.0 mg/kg/injection, schedule: Q04DX003 (ip), vehicle: saline 96 % of control

CCOC(=O)C1CC1C(=O)OCC (configuration not stated)
inactive: [1] 88 % of control | [7] 100 % of control | [2] 104 % of control | [8] 96 % of control | [3] 100 % of control | [9] 103 % of control

From PubChem BioAssay AID256 (DTP/NCI, 2004)
